Experimental data: ChEMBL document CHEMBL1201862, “PubChem BioAssay data set” (2004)
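Where inhibition never reached the appropriate level, the endpoint shown equals the highest concentration tested. Otherwise, values were interpolated linearly from a five-concentration, 48-hour dose response in 96-well plates. GI50 is the concentration that inhibits growth by half.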 Activity calls are given as the source filed them. No stated cut-off is given here; in the data, active = GI50 up to about 1.1 µM and inactive = higher.

What was measured:
Experiment in all cases: DTP human tumour cell line panel, 48 h
SF-295 = system: SF-295
CCRF-CEM = system: CCRF-CEM
HOP-92 = system: HOP-92
UACC-62 = system: UACC-62
KM12 = system: KM12
IGROV-1 = system: IGROV-1
SNB-75 = system: SNB-75
HT-29 = system: HT-29
DU-145 = system: DU-145
OVCAR-8 = system: OVCAR-8
MDA-MB-435 = system: MDA-MB-435
MCF7 = system: MCF7
COLO 205 = system: COLO 205
SW-620 = system: SW-620
NCI-H460 = system: NCI-H460
MOLT-4 = system: MOLT-4
HCT-15 = system: HCT-15
HOP-62 = system: HOP-62
786-0 = system: 786-0
Hs-578T = system: Hs-578T

Compound	GI50 (SF-295)	GI50 (CCRF-CEM)	GI50 (HOP-92)	GI50 (UACC-62)	GI50 (KM12)	GI50 (IGROV-1)	GI50 (SNB-75)	GI50 (HT-29)	GI50 (DU-145)	GI50 (OVCAR-8)	GI50 (MDA-MB-435)	GI50 (MCF7)	GI50 (COLO 205)	GI50 (SW-620)	GI50 (NCI-H460)	GI50 (MOLT-4)	GI50 (HCT-15) [µM]	GI50 (HOP-62)	GI50 (786-0)	GI50 (Hs-578T)
OCCSCC(O)Cn1cnc2c(O)nc(Nc3ccccc3)nc21 (stereo not given)	> 100 µM (inactive)	> 100 µM (inactive)	> 100 µM (inactive)	> 100 µM (inactive)	> 100 µM (inactive)	> 100 µM (inactive)	> 100 µM (inactive)	> 100 µM (inactive)	> 100 µM (inactive)	> 100 µM (inactive)	> 100 µM (inactive)	> 100 µM (inactive)	> 100 µM (inactive)	> 100 µM (inactive)	> 100 µM (inactive)	> 100 µM (inactive)	> 100	> 100 µM (inactive)	> 100 µM (inactive)	> 100 µM (inactive)
COc1ccc(-c2nc(SCC(=O)N/N=C/c3ccc([N+](=O)[O-])cc3)[nH]c2-c2ccc(OC)cc2)cc1	8.05 µM (inactive)	3.18 µM (inactive)	12.6 µM (inactive)	7.01 µM (inactive)	4.86 µM (inactive)	10.8 µM (inactive)	15.2 µM (inactive)	8.41 µM (inactive)	28 µM (inactive)	17.7 µM (inactive)	3.24 µM (inactive)	4.44 µM (inactive)	2.23 µM (inactive)	12.6 µM (inactive)	10.3 µM (inactive)	7.66 µM (inactive)	8.55	16.7 µM (inactive)	20 µM (inactive)	14.4 µM (inactive)
C=CCN1CN(C2CCCCC2)CSC1=S	28.4 µM (inactive)	0.818 µM (active)	5.18 µM (inactive)	5.86 µM (inactive)	3.19 µM (inactive)	8.34 µM (inactive)	6.12 µM (inactive)	3.48 µM (inactive)	2.23 µM (inactive)	4.06 µM (inactive)	0.944 µM (active)	1.26 µM (inactive)	3.32 µM (inactive)	0.733 µM (active)	4.12 µM (inactive)	1.11 µM (active)	2.54	5.57 µM (inactive)	3.27 µM (inactive)	4.94 µM (inactive)
N#Cc1cc(C#N)c(N)nc1N	> 100 µM (inactive)	> 100 µM (inactive)	> 100 µM (inactive)	> 100 µM (inactive)	> 100 µM (inactive)	> 100 µM (inactive)	> 100 µM (inactive)	> 100 µM (inactive)	43.6 µM (inactive)	> 100 µM (inactive)	> 100 µM (inactive)	> 100 µM (inactive)	> 100 µM (inactive)	> 100 µM (inactive)	> 100 µM (inactive)	> 100 µM (inactive)	> 100	> 100 µM (inactive)	> 100 µM (inactive)	> 100 µM (inactive)
CN(C)C(=S)C(Cl)(c1ccccc1)c1ccccc1	> 100 µM (inactive)	27.1 µM (inactive)	> 100 µM (inactive)	> 100 µM (inactive)	46.3 µM (inactive)	> 100 µM (inactive)	15.8 µM (inactive)	22.6 µM (inactive)	40.6 µM (inactive)	73.8 µM (inactive)	37.1 µM (inactive)	28.6 µM (inactive)	85.7 µM (inactive)	34 µM (inactive)	> 100 µM (inactive)	11.8 µM (inactive)	63	> 100 µM (inactive)	44.4 µM (inactive)	> 100 µM (inactive)
CC(C)CCCC(C)[C@H]1CCC2[C@@H]3CCC4Cc5nc6c(nc5C[C@]4(C)C3CC[C@@]21C)CC1CC[C@@H]2C(CC[C@@]3(C)C2CC[C@@H]3C(C)CCCC(C)C)[C@@]1(C)C6 (stereo not given in full)	> 100 µM (inactive)	> 100 µM (inactive)	> 100 µM (inactive)	> 100 µM (inactive)	> 100 µM (inactive)	> 100 µM (inactive)	38.8 µM (inactive)	> 100 µM (inactive)	> 100 µM (inactive)	> 100 µM (inactive)	> 100 µM (inactive)	> 100 µM (inactive)	> 100 µM (inactive)	> 100 µM (inactive)	> 100 µM (inactive)	> 100 µM (inactive)	> 100	> 100 µM (inactive)	> 100 µM (inactive)	> 100 µM (inactive)
Nc1nc(Br)nc2ncn(C3CC(O)C(CO)O3)c12 (stereo not given)	> 100 µM (inactive)	< 0.01 µM (active)	2.42 µM (inactive)	11.9 µM (inactive)	> 100 µM (inactive)	> 100 µM (inactive)	> 100 µM (inactive)	52.7 µM (inactive)	> 100 µM (inactive)	0.236 µM (active)	> 100 µM (inactive)	> 21.3 µM (inactive)	67.3 µM (inactive)	> 24.8 µM (inactive)	85.1 µM (inactive)	0.0212 µM (active)	> 100	> 100 µM (inactive)	77.3 µM (inactive)	> 100 µM (inactive)
Nc1nc2c(ncn2Cc2ccc(CO)cc2)c(=O)[nH]1	> 100 µM (inactive)	> 100 µM (inactive)	> 100 µM (inactive)	> 100 µM (inactive)	> 100 µM (inactive)	> 100 µM (inactive)	> 100 µM (inactive)	> 100 µM (inactive)	> 100 µM (inactive)	> 100 µM (inactive)	> 100 µM (inactive)	> 100 µM (inactive)	> 100 µM (inactive)	> 100 µM (inactive)	> 100 µM (inactive)	> 100 µM (inactive)	> 100	> 100 µM (inactive)	> 100 µM (inactive)	> 100 µM (inactive)
Cc1cn(CC2=NCCN2)c(=O)[nH]c1=O	> 100 µM (inactive)	> 100 µM (inactive)	> 100 µM (inactive)	> 100 µM (inactive)	> 100 µM (inactive)	> 100 µM (inactive)	> 100 µM (inactive)	> 100 µM (inactive)	> 100 µM (inactive)	> 100 µM (inactive)	> 100 µM (inactive)	> 100 µM (inactive)	> 100 µM (inactive)	> 100 µM (inactive)	> 100 µM (inactive)	> 100 µM (inactive)	> 100	> 100 µM (inactive)	> 100 µM (inactive)	> 100 µM (inactive)
CCN(CC)c1ncnc2c1ncn2CCNC(CO)(CO)CO	> 100 µM (inactive)	> 100 µM (inactive)	> 100 µM (inactive)	> 100 µM (inactive)	> 100 µM (inactive)	> 100 µM (inactive)	> 100 µM (inactive)	> 100 µM (inactive)	> 100 µM (inactive)	> 100 µM (inactive)	> 100 µM (inactive)	> 100 µM (inactive)	> 100 µM (inactive)	> 100 µM (inactive)	> 100 µM (inactive)	> 100 µM (inactive)	> 100	> 100 µM (inactive)	> 100 µM (inactive)	> 100 µM (inactive)
CCOC(=O)c1c(C)n(-c2ccc(C)cc2)c2c1cc(O)c1[nH]c3c(c12)CCCC3	20.6 µM (inactive)	1.38 µM (inactive)	2.92 µM (inactive)	17.3 µM (inactive)	16.7 µM (inactive)	13.8 µM (inactive)	0.0658 µM (active)	14.9 µM (inactive)	12.8 µM (inactive)	22.4 µM (inactive)	20.1 µM (inactive)	16.5 µM (inactive)	25.6 µM (inactive)	17.6 µM (inactive)	24.8 µM (inactive)	8.77 µM (inactive)	24.3	27.9 µM (inactive)	16.9 µM (inactive)	< 0.01 µM (active)
CN1C(=O)c2ccccc2OC12C=Cc1ccc(O)cc1O2 (stereo not given)	29.9 µM (inactive)	19.3 µM (inactive)	27.2 µM (inactive)	28.8 µM (inactive)	25.2 µM (inactive)	28.2 µM (inactive)	22.8 µM (inactive)	22.3 µM (inactive)	22.6 µM (inactive)	12.7 µM (inactive)	16.4 µM (inactive)	32.4 µM (inactive)	22.2 µM (inactive)	26.6 µM (inactive)	20 µM (inactive)	16.7 µM (inactive)	29.6	13.3 µM (inactive)	31.6 µM (inactive)	19.3 µM (inactive)
Oc1cccc2ccc(Br)nc12	> 100 µM (inactive)	46.6 µM (inactive)	> 100 µM (inactive)	> 100 µM (inactive)	> 100 µM (inactive)	> 100 µM (inactive)	> 100 µM (inactive)	> 100 µM (inactive)	> 100 µM (inactive)	> 100 µM (inactive)	> 100 µM (inactive)	> 100 µM (inactive)	> 100 µM (inactive)	> 100 µM (inactive)	> 100 µM (inactive)	> 100 µM (inactive)	> 100	> 100 µM (inactive)	> 100 µM (inactive)	> 100 µM (inactive)
O/N=N/c1ccccn1.OCC1OC2OC3C(CO)OC(OC4C(CO)OC(OC5C(CO)OC(OC6C(CO)OC(OC7C(CO)OC(OC1C(O)C2O)C(O)C7O)C(O)C6O)C(O)C5O)C(O)C4O)C(O)C3O (stereo not given)	> 100 µM (inactive)	67.5 µM (inactive)	> 100 µM (inactive)	47.9 µM (inactive)	82.4 µM (inactive)	> 100 µM (inactive)	37.6 µM (inactive)	> 100 µM (inactive)	> 100 µM (inactive)	> 100 µM (inactive)	19.2 µM (inactive)	> 100 µM (inactive)	> 100 µM (inactive)	42.1 µM (inactive)	68.7 µM (inactive)	> 100 µM (inactive)	> 100	> 100 µM (inactive)	> 100 µM (inactive)	> 100 µM (inactive)
